In PubChem BioAssay AID2060354 (Molecular Pharmacology Branch, DTP, NCI, 2025) one finds IC50 and viability, T/C data, which are given here for four molecules.

pIC50: −log10 of the molar value. Several values for one entry are separate records, joined by “and”; a condition that tells them apart may be missing. Identical values can stand only once. Bounds are passed on as bounds.

The subject of this test is 519858-162-T-J1-PDC spheroid growth inhibition. The test is described as follows: Anticancer human tumor 519858-162-T-J1-PDC patient-derived colon adenocarcinoma cell line growth inhibition [TAK]. Particulars: spheroids with HUVEC and MSC; for viability, T/C: stronger effect = lower value. An outline of the steps:
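Tumor cells were grown as spheroids with HUVEC and hMSC (60:25:15) and treated with targeted agents combined with TAK-243 or ipatasertib. Drugs were tested in half-log steps down from near the clinical Cmax, or from 10 microM where Cmax was unknown.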

[1] abbreviates: curve of first compound, second compound 0.3 µM.
The mark [2] stands for this setting: curve of first compound, second compound 0.949 µM.
Setting [3] is: curve of first compound, second compound 3 µM.
Where [4] appears, read: curve of first compound, second compound 9.49 µM.
Setting [5] is: curve of first compound, second compound 30 µM.
Where [6] appears, read: second compound 0.3 µM, first compound 0.0316 µM.
Setting [7] is: second compound 0.3 µM, first compound 0.1 µM.
The mark [8] stands for this setting: second compound 0.949 µM, first compound 0.0316 µM.
Setting [9] is: second compound 0.949 µM, first compound 0.1 µM.
[10] abbreviates: second compound 3 µM, first compound 0.0316 µM.
Where [11] appears, read: second compound 3 µM, first compound 0.1 µM.
[12] abbreviates: second compound 9.49 µM, first compound 0.0316 µM.
Setting [13] is: second compound 9.49 µM, first compound 0.1 µM.
Where [14] appears, read: second compound 30 µM, first compound 0.0316 µM.
Setting [15] is: second compound 30 µM, first compound 0.1 µM.
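Also: spheroids exposed to drugs for 7 days.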

Broadly, the pIC50 is −log10 of the IC50, conventionally taken in molar units. A word on the viability, T/C: it is the result in the treated group divided by that in the control group, in per cent. As to `CC(C)n1nc(-c2ccc3oc(N)nc3c2)c2c(N)ncnc21` + CC(C)NCC(C(=O)N1CCN(c2ncnc3c2C(C)CC3O)CC1)c1ccc(Cl)cc1, the pIC50 runs as follows: under setting [1], less than 7.00; under setting [2], less than 7.00; under setting [3], less than 7.00; under setting [4], less than 7.00; under setting [5], less than 7.00. In addition, the viability, T/C turned out to be 110% (second compound 0.3 µM, first compound 0.000316 µM); 78.7% (second compound 0.3 µM, first compound 0.001 µM); 89.7% (second compound 0.3 µM, first compound 0.00316 µM); 89.7% (second compound 0.3 µM, first compound 0.01 µM); 93.8% under setting [6]; 68.1% under setting [7]. The viability, T/C is 85.7% (second compound 0.949 µM, first compound 0.000316 µM); 88.2% (second compound 0.949 µM, first compound 0.001 µM); 107% (second compound 0.949 µM, first compound 0.00316 µM); 83.8% (second compound 0.949 µM, first compound 0.01 µM); 90% under setting [8]; 71.1% under setting [9]. Moreover, the viability, T/C runs as follows: (second compound 3 µM, first compound 0.000316 µM) 80.5%; (second compound 3 µM, first compound 0.001 µM) 102%; (second compound 3 µM, first compound 0.00316 µM) 89.3%; (second compound 3 µM, first compound 0.01 µM) 83.9%; under setting [10], 71.4%; under setting [11], 72.2%. The viability, T/C runs as follows: (second compound 9.49 µM, first compound 0.000316 µM) 81.9%; (second compound 9.49 µM, first compound 0.001 µM) 90.1%; (second compound 9.49 µM, first compound 0.00316 µM) 84.1%; (second compound 9.49 µM, first compound 0.01 µM) 93.7%; under setting [12], 74.1%; under setting [13], 73.9%. In addition, the viability, T/C (second compound 30 µM, first compound 0.000316 µM) is 107%; the viability, T/C (second compound 30 µM, first compound 0.001 µM) was 80.2%; the viability, T/C (second compound 30 µM, first compound 0.00316 µM) was found to be 105%; the viability, T/C (second compound 30 µM, first compound 0.01 µM) is 79%; the viability, T/C under setting [14] was found to be 67.1%; the viability, T/C under setting [15] was 72.2%.

As for `COC1CC2CCC(C)C(O)(O2)C(=O)C(=O)N2CCCCC2C(=O)OC(C(C)CC2CCC(OCCO)C(OC)C2)CC(=O)C(C)C=C(C)C(O)C(OC)C(=O)C(C)CC(C)C=CC=CC=C1C` (stereo not drawn), the viability, T/C is 98.9% and 86.7% (compound 0.000316 µM); 88.3% and 111% (compound 0.00316 µM); 76.2% and 91.2% (compound 0.01 µM); 89.6% and 75.7% (compound 0.0316 µM); 71.5% and 82.5% (compound 0.1 µM). Also, the pIC50 (curve of compound) was less than 7.00.

For the molecule `Cc1nc(NC(=O)N2CCCC2C(N)=O)sc1-c1ccnc(C(C)(C)C(F)(F)F)c1` (stereo not drawn) + CC(C)NCC(C(=O)N1CCN(c2ncnc3c2C(C)CC3O)CC1)c1ccc(Cl)cc1, the pIC50 reads like this: under setting [1], less than 5.00; under setting [2], less than 5.00; under setting [3], less than 5.00; under setting [4], less than 5.00; under setting [5], less than 5.00. For the same molecule, the viability, T/C by setting is: under setting [6], 110%; under setting [7], 88.2%; (second compound 0.3 µM, first compound 0.316 µM) 81%; (second compound 0.3 µM, first compound 1 µM) 81.7%; (second compound 0.3 µM, first compound 3.16 µM) 68.5%; (second compound 0.3 µM, first compound 10 µM) 52.8%. Further, the viability, T/C under setting [8] was 85.3%; the viability, T/C under setting [9] is 94.8%; the viability, T/C (second compound 0.949 µM, first compound 0.316 µM) amounted to 104%; the viability, T/C (second compound 0.949 µM, first compound 1 µM) is 79.9%; the viability, T/C (second compound 0.949 µM, first compound 3.16 µM) was 86.9%; the viability, T/C (second compound 0.949 µM, first compound 10 µM) stood at 66.2%. Moreover, the viability, T/C worked out at 80% under setting [10]; 77.5% under setting [11]; 76.9% (second compound 3 µM, first compound 0.316 µM); 75.1% (second compound 3 µM, first compound 1 µM); 80.5% (second compound 3 µM, first compound 3.16 µM); 65.7% (second compound 3 µM, first compound 10 µM). Further, the viability, T/C was found to be 85.6% under setting [12]; 74.2% under setting [13]; 81.4% (second compound 9.49 µM, first compound 0.316 µM); 74.4% (second compound 9.49 µM, first compound 1 µM); 71.2% (second compound 9.49 µM, first compound 3.16 µM); 62.7% (second compound 9.49 µM, first compound 10 µM). For the same molecule, the viability, T/C by setting is: under setting [14], 94.6%; under setting [15], 82%; (second compound 30 µM, first compound 0.316 µM) 91.5%; (second compound 30 µM, first compound 1 µM) 80.2%; (second compound 30 µM, first compound 3.16 µM) 72.4%; (second compound 30 µM, first compound 10 µM) 72.2%.

`Cc1nc(NC(=O)N2CCCC2C(N)=O)sc1-c1ccnc(C(C)(C)C(F)(F)F)c1` (stereo not drawn): the viability, T/C was 104% and 89.1% (compound 0.0316 µM); 79.9% and 74% (compound 0.1 µM); 91% and 80.8% (compound 0.316 µM); 81.2% and 80.4% (compound 1 µM); 79.6% and 74% (compound 3.16 µM); 61.9% and 50% (compound 10 µM). For the same molecule, the pIC50 (curve of compound) was < 5.00 and 5.00.
